# Structures can show the parent of a compound that is named as a salt.
# Legend:
# [1] = biological target: T1, acetylcholinesterase from human erythrocyte origin (Homo sapiens, UniProt P22303); test: Acetylcholinesterase-inhibitory action, acetylthiocholine method (Ellman method); type: biochemical; conditions: repeated at least 3 times, read-out: AChE: IC50
# T1 construct: Acetylcholinesterase from human erythrocyte origin (Sigma Chemical Co.); purchased Sigma Chemical Co; host or cells: human erythrocytes (tissue-derived enzyme)
# Description: a) Measurement of Acetylcholinesterase-Inhibitory Action
# Acetylcholinesterase-inhibitory action of the Example Compounds was measured using acetylcholinesterase from human erythrocyte origin according to the acetylthiocholine method (Ellman method).
# Acetylcholinesterase from human erythrocyte origin (Sigma Chemical Co.) was dissolved in distilled water at a concentration of 0.2 IU/mL to give an enzyme authentic sample. To a 96-well microplate 20 μL of drug solution, 30 μL of 80 mM Tris-HCl (pH 7.4), 50 μL of enzyme authentic sample and 50 μL of 5 mM 5,5-dithio-bis(2-nitrobenzoic acid) (Sigma Chemical Co.) were added, and the plate was shaken for 10 seconds. Then, 50 μL of acetylthiocholine iodide (Sigma Chemical Co.) was added, and the plate was again shaken. Immediately after shaking, absorbance at 414 nm was measured at intervals of 30 seconds for 10 minutes.
# The experiment was repeated at least 3 times for each compound to obtain 50% inhibitory concentration (IC50). Moreover, in the same manner as mentioned above, acetylcholinesterase-inhibiting activity of distigmine was measured.
# [2] = biological target: T2, human adrenaline α1A receptor (Homo sapiens, UniProt P35348); test: α1A receptor binding inhibitory activity, [3H]-Prazosin binding to CHO-K1 membrane fraction; conditions: inhibition of [3H]-Prazosin (2.5 nM) binding to membrane fraction of CHO-K1 cells expressing human α1A receptor
# T2 construct: expressed in transfected cells
# T2 sequence (P35348 1-466): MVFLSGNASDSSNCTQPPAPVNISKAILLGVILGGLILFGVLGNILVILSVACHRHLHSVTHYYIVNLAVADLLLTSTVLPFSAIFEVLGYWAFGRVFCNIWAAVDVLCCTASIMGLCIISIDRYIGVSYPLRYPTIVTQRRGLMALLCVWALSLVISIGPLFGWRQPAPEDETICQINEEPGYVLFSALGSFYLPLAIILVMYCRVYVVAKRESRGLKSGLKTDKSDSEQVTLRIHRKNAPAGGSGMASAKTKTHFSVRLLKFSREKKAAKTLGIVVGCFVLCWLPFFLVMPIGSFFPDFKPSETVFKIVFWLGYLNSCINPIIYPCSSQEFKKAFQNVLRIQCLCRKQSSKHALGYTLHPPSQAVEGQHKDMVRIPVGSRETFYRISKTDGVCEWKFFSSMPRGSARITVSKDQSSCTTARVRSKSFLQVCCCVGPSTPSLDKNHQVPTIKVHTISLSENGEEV
# Description: b) Measurement of α1 A Receptor Binding Inhibitory Activity
# The genetic engineering procedures as described below were based on the methods described in the textbook (Maniatis, et al., Molecular Cloning, Cold Spring Harbor Laboratory, 1989) or the methods described in the protocols attached to the reagents.
# (i) Preparation of Expression Plasmid of Human Adrenaline α1 A Receptor
# An adrenaline α1 A receptor gene was cloned from human liver cDNA by means of a PCR method. PCR reaction was performed in a Gene Amp PCR System 9700 (Applied Biosystems) with 200 ng of a human liver cDNA library (Takara Shuzo Co., Ltd.) as a template, by adding 50 pmol of each of the primer sets shown below which were prepared with referring to the base sequence of the adrenaline α1 A receptor gene reported by Hirasawa A. et al. (Biochem. Biophys. Res. Commun., 195, 902-909 (1993)): 5′-[…]-3′ [SEQ ID NO: 1], and 5′-[…]-3′ [SEQ ID NO: 2], and using a TaKaRa Pyrobest DNA Polymerase (Takara Shuzo Co., Ltd.) (reaction condition: 45 cycles of 94° C. for 15 seconds and 68° C. for 3 minutes and 30 seconds).
# Thus obtained PCR fragments were digested with a restriction enzyme Eco RI (Takara Shuzo Co., Ltd.) and Sal I (Takara Shuzo Co., Ltd.), and then subjected to electrophoresis on agarose gel to recover DNA fragments. […]
# T1 sequence (P22303 32-617 isoform P22303-2 limits assumed): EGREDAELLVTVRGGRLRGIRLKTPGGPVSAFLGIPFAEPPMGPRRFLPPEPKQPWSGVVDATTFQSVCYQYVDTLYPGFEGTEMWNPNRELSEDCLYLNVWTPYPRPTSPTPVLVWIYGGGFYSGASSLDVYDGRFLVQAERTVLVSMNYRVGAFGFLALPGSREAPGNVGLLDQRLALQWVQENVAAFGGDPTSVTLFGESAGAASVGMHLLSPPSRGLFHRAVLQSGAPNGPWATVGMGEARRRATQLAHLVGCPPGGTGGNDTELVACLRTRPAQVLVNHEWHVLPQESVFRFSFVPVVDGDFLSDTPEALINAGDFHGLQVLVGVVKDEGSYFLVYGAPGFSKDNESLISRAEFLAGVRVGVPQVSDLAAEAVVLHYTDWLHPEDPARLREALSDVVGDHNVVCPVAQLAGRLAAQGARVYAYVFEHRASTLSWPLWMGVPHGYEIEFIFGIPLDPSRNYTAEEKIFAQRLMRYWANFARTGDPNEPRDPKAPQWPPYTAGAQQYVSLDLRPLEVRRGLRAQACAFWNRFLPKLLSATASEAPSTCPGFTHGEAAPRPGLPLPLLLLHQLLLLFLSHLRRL
SMILES,melting point,IC50 [1],IC50 [2]
Cl.NS(=O)(=O)c1cc(C(=O)CCCCNCCc2ccccc2OC(F)(F)F)cc2c1CCC2,139 to 141 °C,–,–
Cl.NS(=O)(=O)c1cc(C(=O)CCCCCNCCc2ccccc2OC(F)(F)F)cc2c1OCC2,85 to 87 °C,–,–
COc1ccccc1CCNCCCCCC(=O)c1cc2c(c(S(N)(=O)=O)c1)OCC2.Cl,92 to 94 °C,–,–
Cl.NS(=O)(=O)c1cc(C(=O)CCCCCNCCc2ccccc2Cl)cc2c1OCC2,107 to 109 °C,–,–
CNS(=O)(=O)c1cc(C(=O)CCCCNCCc2ccccc2OC(F)(F)F)cc2c1OCC2.Cl,135 to 137 °C,–,–
CC(C)NS(=O)(=O)c1cc(C(=O)CCCCNCCc2ccccc2OC(F)(F)F)cc2c1OCC2.Cl,173 to 175 °C,–,–
COc1ccc(C(=O)CCCCNCCc2ccccc2OC(F)(F)F)cc1S(N)(=O)=O.Cl,169 to 171 °C,–,–
COc1ccc(C(=O)CCCCNCCc2ccccc2OC(F)(F)F)cc1S(=O)(=O)NC(C)C.Cl,156 to 158 °C,–,–
Cl.NS(=O)(=O)c1cc(C(=O)CCCCNCCc2ccccc2OC(F)(F)F)cc2c1OCCO2,111 to 113 °C,–,–
CC(=O)Nc1cc(C(=O)CCCCNCCc2ccccc2OC(F)(F)F)cc2c1OCC2.Cl,120 to 122 °C,–,–
COc1ccccc1CCNCCCCC(=O)c1cc2c(c(S(N)(=O)=O)c1)CCC2.Cl,106 to 108 °C,–,–
CS(=O)(=O)Nc1cc(C(=O)CCCCNCCc2ccccc2OC(F)(F)F)cc2c1OCC2.Cl,112 to 114 °C,–,–
NS(=O)(=O)c1cc(C(O)CCCCNCCc2ccccc2OC(F)(F)F)cc2c1OCC2.O=C(O)/C=C\C(=O)O (stereo not shown),61 to 63 °C,–,–
Cl.NS(=O)(=O)c1cc(C(=O)CCCCNCCc2ccccc2Cl)cc2c1CCC2,167 to 169 °C,–,–
CNS(=O)(=O)c1cc(C(=O)CCCCNCCc2ccccc2OC(F)(F)F)cc2c1CCC2.Cl,143 to 145 °C,–,–
"CN(CCCCCCN(C)C(=O)Oc1ccc[n+](C)c1)C(=O)Oc1ccc[n+](C)c1 [Distigmine, distigmine, reference compound]",–,270 nM,–
"NS(=O)(=O)c1cc(C(=O)CCCCNCCc2ccccc2OC(F)(F)F)cc2c1OCC2 [Example 6, 5-[5-({2-[2-(Trifluoromethoxy)phenyl]ethyl}amino)-pentanoyl]-2,3-dihydro-1-benzofuran-7-sulfonamide tosylate]",–,80 nM,19 nM
"COc1ccccc1N1CCN(CCCNc2cc(=O)n(C)c(=O)n2C)CC1 [Urapidil, urapidil, reference compound]",–,–,470 nM

# Source: patent US20070099986A1, “Preventives/remedies for urinary disturbance” (priority 2005, published 2007)
